# Results published in patent publication EP3818828A1 (priority 2019, dated 2021).
# Tested on: damping-off (P. aphanidermatum, P.capsici)
# Experiment: In-vivo greenhouse control of damping-off of eggplants
# Settings: Eggplant; sick soil; 0.80 mg/mL (active ingredients)
# Procedure: 3.88 g of 3-(3',4'-methylenedioxy phenyl)-N-n-propyl acrylamide was weighed and dissolved in 25 g of absolute ethyl alcohol, then 6 g of emulsifier 0203B was added, and mixed uniformly with stirring to get 10% of 3-(3',4'-methylenedioxy phenyl)-N-n-propyl acrylamide EC.
# 5.61 g of 3-(3',4'-methylenedioxy phenyl)-piperidine acrylate was weighed and dissolved in 25 g of absolute ethyl alcohol, then 6 g of emulsifier 0203B was added, and mixed uniformly with stirring to get 14% of 3-(3',4'-methylenedioxy phenyl)-piperidine acrylate EC.
# Sick soil of damping-off (P. aphanidermatum, P.capsici) was collected from the fields of tomatoes, eggplants and peppers in a solar greenhouse, and mixed evenly in equal proportion. Tomatoes (Variety: Song Tian Fen Yang Yang, 100 grains), eggplants (Variety: Lanza No. 2 F1 long eggplant, 100 grains), pepper (Longjiao No. 2 F1, 100 grains) were seeded quantitatively with the sick soil in pots (diameter: 15 cm) in a greenhouse, additionally with sterile vermiculite as the control (each 100 grains for determining the germination rate). […] Mortality of seedlings was investigated after the seedlings had grown 2 true leaves, and the control effect of each treatment on damping-off was calculated. […]
compound,measurement,value
"O=C(/C=C/c1ccc2c(c1)OCO2)N1CCCCC1 [3-(3',4'-methylenedioxyphenyl)-piperidine acrylate]",Control Effect,63.47%
